{"source": "PubChem BioAssay (NCI)", "assay_in_all_cases": "NCI anticancer screen, dose series, 48 h", "key": {"M14 melanoma": {"system": "M14 melanoma"}, "A498 renal": {"system": "A498 renal"}, "SF-295 CNS": {"system": "SF-295 CNS"}, "SNB-75 CNS": {"system": "SNB-75 CNS"}, "NCI-H522 lung": {"system": "NCI-H522 lung"}, "ACHN renal": {"system": "ACHN renal"}, "SW-620 colon": {"system": "SW-620 colon"}, "RXF 393 renal": {"system": "RXF 393 renal"}, "MDA-MB-435": {"system": "MDA-MB-435"}, "CAKI-1 renal": {"system": "CAKI-1 renal"}}, "note": "Values joined by “and” are separate entries in the source; they are usually repeats but may differ in a detail not shown here. Equal entries are not always repeated.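 96-well plates; 48 h exposure; 5 concentrations. Endpoints by linear interpolation between flanking doses. Not reached: highest tested concentration assigned. Abbreviation: GI50, concentration required for 50% inhibition of growth. The concentration for full growth arrest is given as TGI.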"}
{"smiles": "COc1cc(-c2csc(NC(=O)Nc3ccc(Cl)cc3)n2)cc(OC)c1OC", "values": [{"measurement": "GI50", "setting": "M14 melanoma", "value": 2.27, "unit": "µM"}, {"measurement": "TGI", "setting": "M14 melanoma", "value": 5.92, "unit": "µM"}, {"measurement": "GI50", "setting": "A498 renal", "value": 2.24, "unit": "µM"}, {"measurement": "TGI", "setting": "A498 renal", "value": 8.03, "unit": "µM"}, {"measurement": "GI50", "setting": "SF-295 CNS", "value": 2.51, "unit": "µM"}, {"measurement": "TGI", "setting": "SF-295 CNS", "value": 8.45, "unit": "µM"}, {"measurement": "GI50", "setting": "SNB-75 CNS", "value": 2.12, "unit": "µM"}, {"measurement": "TGI", "setting": "SNB-75 CNS", "value": 8.39, "unit": "µM"}, {"measurement": "GI50", "setting": "NCI-H522 lung", "value": 2.34, "unit": "µM"}, {"measurement": "TGI", "setting": "NCI-H522 lung", "value": 6.95, "unit": "µM"}, {"measurement": "GI50", "setting": "ACHN renal", "value": 2.53, "unit": "µM"}, {"measurement": "TGI", "setting": "ACHN renal", "value": 7.35, "unit": "µM"}, {"measurement": "GI50", "setting": "SW-620 colon", "value": 3.96, "unit": "µM"}, {"measurement": "TGI", "setting": "SW-620 colon", "value": "> 100", "unit": "µM"}, {"measurement": "GI50", "setting": "RXF 393 renal", "value": 3.91, "unit": "µM"}, {"measurement": "TGI", "setting": "RXF 393 renal", "value": 13.9, "unit": "µM"}, {"measurement": "GI50", "setting": "MDA-MB-435", "value": 2.17, "unit": "µM"}, {"measurement": "TGI", "setting": "MDA-MB-435", "value": 5.88, "unit": "µM"}, {"measurement": "GI50", "setting": "CAKI-1 renal", "value": 2.91, "unit": "µM"}, {"measurement": "TGI", "setting": "CAKI-1 renal", "value": 11.1, "unit": "µM"}]}
{"smiles": "COc1ccc(-c2nn3ncccc3c2-c2ccnc(Nc3ccc(F)c(F)c3)n2)cc1", "values": [{"measurement": "GI50", "setting": "M14 melanoma", "value": 9.61, "unit": "µM"}, {"measurement": "TGI", "setting": "M14 melanoma", "value": "> 25", "unit": "µM"}, {"measurement": "GI50", "setting": "A498 renal", "value": 3.96, "unit": "µM"}, {"measurement": "TGI", "setting": "A498 renal", "value": "> 23", "unit": "µM"}, {"measurement": "GI50", "setting": "SF-295 CNS", "value": 4.26, "unit": "µM"}, {"measurement": "TGI", "setting": "SF-295 CNS", "value": "> 25", "unit": "µM"}, {"measurement": "GI50", "setting": "SNB-75 CNS", "value": 8.49, "unit": "µM"}, {"measurement": "TGI", "setting": "SNB-75 CNS", "value": "> 25", "unit": "µM"}, {"measurement": "GI50", "setting": "NCI-H522 lung", "value": 8.18, "unit": "µM"}, {"measurement": "TGI", "setting": "NCI-H522 lung", "value": "> 23.6", "unit": "µM"}, {"measurement": "GI50", "setting": "ACHN renal", "value": 10.4, "unit": "µM"}, {"measurement": "TGI", "setting": "ACHN renal", "value": "> 25", "unit": "µM"}, {"measurement": "GI50", "setting": "SW-620 colon", "value": 17, "unit": "µM"}, {"measurement": "TGI", "setting": "SW-620 colon", "value": "> 25", "unit": "µM"}, {"measurement": "GI50", "setting": "RXF 393 renal", "value": 7.45, "unit": "µM"}, {"measurement": "TGI", "setting": "RXF 393 renal", "value": "> 25", "unit": "µM"}, {"measurement": "GI50", "setting": "MDA-MB-435", "value": 7.39, "unit": "µM"}, {"measurement": "TGI", "setting": "MDA-MB-435", "value": "> 25", "unit": "µM"}, {"measurement": "GI50", "setting": "CAKI-1 renal", "value": 7.65, "unit": "µM"}, {"measurement": "TGI", "setting": "CAKI-1 renal", "value": "> 23.4", "unit": "µM"}]}
{"smiles": "Clc1cccc(-c2cc(-c3ccc4c(c3)OCCO4)[nH]n2)c1", "values": [{"measurement": "GI50", "setting": "M14 melanoma", "value": 1.49, "unit": "µM"}, {"measurement": "TGI", "setting": "M14 melanoma", "value": 35.3, "unit": "µM"}, {"measurement": "GI50", "setting": "A498 renal", "value": 1.73, "unit": "µM"}, {"measurement": "TGI", "setting": "A498 renal", "value": 18.5, "unit": "µM"}, {"measurement": "GI50", "setting": "SF-295 CNS", "value": 9.71, "unit": "µM"}, {"measurement": "TGI", "setting": "SF-295 CNS", "value": 45.1, "unit": "µM"}, {"measurement": "GI50", "setting": "SNB-75 CNS", "value": 2.24, "unit": "µM"}, {"measurement": "TGI", "setting": "SNB-75 CNS", "value": 34.8, "unit": "µM"}, {"measurement": "GI50", "setting": "NCI-H522 lung", "value": 1.48, "unit": "µM"}, {"measurement": "TGI", "setting": "NCI-H522 lung", "value": 37.2, "unit": "µM"}, {"measurement": "GI50", "setting": "ACHN renal", "value": 9.69, "unit": "µM"}, {"measurement": "TGI", "setting": "ACHN renal", "value": 41, "unit": "µM"}, {"measurement": "GI50", "setting": "SW-620 colon", "value": 1.09, "unit": "µM"}, {"measurement": "TGI", "setting": "SW-620 colon", "value": 44.9, "unit": "µM"}, {"measurement": "GI50", "setting": "RXF 393 renal", "value": 7.34, "unit": "µM"}, {"measurement": "TGI", "setting": "RXF 393 renal", "value": 46.1, "unit": "µM"}, {"measurement": "GI50", "setting": "MDA-MB-435", "value": 0.578, "unit": "µM"}, {"measurement": "TGI", "setting": "MDA-MB-435", "value": 26.1, "unit": "µM"}, {"measurement": "GI50", "setting": "CAKI-1 renal", "value": 1.61, "unit": "µM"}, {"measurement": "TGI", "setting": "CAKI-1 renal", "value": 36.3, "unit": "µM"}]}
{"smiles": "CC(C)OC(=O)Nc1c([N+](=O)[O-])cc(C(F)(F)F)cc1[N+](=O)[O-]", "values": [{"measurement": "TGI", "setting": "M14 melanoma", "value": "> 100", "unit": "µM"}, {"measurement": "TGI", "setting": "A498 renal", "value": "> 100", "unit": "µM"}, {"measurement": "TGI", "setting": "SF-295 CNS", "value": 98.2, "unit": "µM"}, {"measurement": "TGI", "setting": "SNB-75 CNS", "value": 40, "unit": "µM"}, {"measurement": "TGI", "setting": "NCI-H522 lung", "value": "> 100", "unit": "µM"}, {"measurement": "TGI", "setting": "ACHN renal", "value": "> 100", "unit": "µM"}, {"measurement": "TGI", "setting": "SW-620 colon", "value": "> 100", "unit": "µM"}, {"measurement": "TGI", "setting": "RXF 393 renal", "value": 62.3, "unit": "µM"}, {"measurement": "TGI", "setting": "MDA-MB-435", "value": "> 100", "unit": "µM"}, {"measurement": "TGI", "setting": "CAKI-1 renal", "value": "> 100", "unit": "µM"}]}
{"smiles": "[Cu].c1ccc2c(c1)C1=NC2=NC2=NC(=NC3=NC(=NC4=NC(=N1)c1ccccc14)c1ccccc13)c1ccccc12", "values": [{"measurement": "GI50", "setting": "M14 melanoma", "value": "> 100", "unit": "µM"}, {"measurement": "TGI", "setting": "M14 melanoma", "value": "> 100", "unit": "µM"}, {"measurement": "GI50", "setting": "A498 renal", "value": "> 100", "unit": "µM"}, {"measurement": "TGI", "setting": "A498 renal", "value": "> 100", "unit": "µM"}, {"measurement": "GI50", "setting": "SF-295 CNS", "value": "> 100", "unit": "µM"}, {"measurement": "TGI", "setting": "SF-295 CNS", "value": "> 100", "unit": "µM"}, {"measurement": "GI50", "setting": "SNB-75 CNS", "value": "> 100", "unit": "µM"}, {"measurement": "TGI", "setting": "SNB-75 CNS", "value": "> 100", "unit": "µM"}, {"measurement": "GI50", "setting": "NCI-H522 lung", "value": "> 100", "unit": "µM"}, {"measurement": "TGI", "setting": "NCI-H522 lung", "value": "> 100", "unit": "µM"}, {"measurement": "GI50", "setting": "ACHN renal", "value": "> 100", "unit": "µM"}, {"measurement": "TGI", "setting": "ACHN renal", "value": "> 100", "unit": "µM"}, {"measurement": "GI50", "setting": "SW-620 colon", "value": "> 100", "unit": "µM"}, {"measurement": "TGI", "setting": "SW-620 colon", "value": "> 100", "unit": "µM"}, {"measurement": "GI50", "setting": "RXF 393 renal", "value": "> 100", "unit": "µM"}, {"measurement": "TGI", "setting": "RXF 393 renal", "value": "> 100", "unit": "µM"}, {"measurement": "GI50", "setting": "MDA-MB-435", "value": "> 100", "unit": "µM"}, {"measurement": "TGI", "setting": "MDA-MB-435", "value": "> 100", "unit": "µM"}, {"measurement": "GI50", "setting": "CAKI-1 renal", "value": "> 100", "unit": "µM"}, {"measurement": "TGI", "setting": "CAKI-1 renal", "value": "> 100", "unit": "µM"}]}
{"smiles": "COc1ccc2c(c1[N+](=O)[O-])CC[C@@H]1[C@@H]2CC[C@]2(C)C(=O)CC[C@@H]12", "values": [{"measurement": "GI50", "setting": "M14 melanoma", "value": "> 562", "unit": "µM"}, {"measurement": "TGI", "setting": "M14 melanoma", "value": "> 562", "unit": "µM"}, {"measurement": "GI50", "setting": "A498 renal", "value": 352, "unit": "µM"}, {"measurement": "TGI", "setting": "A498 renal", "value": "> 25 µM and 791 µM"}, {"measurement": "GI50", "setting": "SF-295 CNS", "value": 342, "unit": "µM"}, {"measurement": "TGI", "setting": "SF-295 CNS", "value": "> 968", "unit": "µM"}, {"measurement": "GI50", "setting": "SNB-75 CNS", "value": 142, "unit": "µM"}, {"measurement": "TGI", "setting": "SNB-75 CNS", "value": "> 25 µM and 345 µM"}, {"measurement": "GI50", "setting": "NCI-H522 lung", "value": 590, "unit": "µM"}, {"measurement": "TGI", "setting": "NCI-H522 lung", "value": "> 957", "unit": "µM"}, {"measurement": "GI50", "setting": "ACHN renal", "value": 424, "unit": "µM"}, {"measurement": "TGI", "setting": "ACHN renal", "value": "> 1000", "unit": "µM"}, {"measurement": "GI50", "setting": "SW-620 colon", "value": "> 1000", "unit": "µM"}, {"measurement": "TGI", "setting": "SW-620 colon", "value": "> 1000", "unit": "µM"}, {"measurement": "GI50", "setting": "RXF 393 renal", "value": 432, "unit": "µM"}, {"measurement": "TGI", "setting": "RXF 393 renal", "value": "> 927", "unit": "µM"}, {"measurement": "GI50", "setting": "MDA-MB-435", "value": "> 1000", "unit": "µM"}, {"measurement": "TGI", "setting": "MDA-MB-435", "value": "> 1000", "unit": "µM"}, {"measurement": "GI50", "setting": "CAKI-1 renal", "value": 660, "unit": "µM"}, {"measurement": "TGI", "setting": "CAKI-1 renal", "value": "> 1000", "unit": "µM"}]}
